Data published in patent US20250011881A1, “MYC-HSF1 DUAL AMPLIFICATION AS A BIOMARKER FOR CANCER TREATMENT” (The Trustees of Indiana University, priority 2023, published 2025).
Counter-ions that a name gives are not always drawn.

tested on: ovarian cancer cells with (OVCAR8, OVCAR4) or without (OVSAHO, CAOV3) MYC-HSF1 amplification; assay: Epigenetic inhibitor drug screen, cell viability (Cell Titer Blue); type: cell-based; details: not given

Compound | Non Amp - AMP (POC) 10 uM [POC]
Cc1ccc(-n2sc3ccccc3c2=O)cc1 [PBIT] | −46.19

same assay, conditions: 10 uM, 48 hrs; average relative cell viability (vs 1% DMSO) of non-amplified cells (OVSAHO, CAOV3) minus that of MYC-HSF1 amplified cells (OVCAR8, OVCAR4); positive = greater response in amplified cells

Compound | Non Amp - AMP (POC) 10 uM [POC]
CCn1c(C(=O)N(C2CC2)C2CC2)cc2c3c(ncn3C)c(Nc3cc(C)n(C)n3)nc21 [BMS-911543] | 1.85
CCN(CCO)CCCOc1ccc2c(Nc3cc(CC(=O)Nc4cccc(F)c4)[nH]n3)ncnc2c1 [Barasertib (AZD1152-HQPA), Barasertib] | −16.49
Cc1cn([C@H]2C[C@H](O)[C@@H](CO)O2)c(=O)nc1N [5-Methyl-2′-deoxycytidine] | −10.37
CC(C)N(CCC(=O)c1ccc2ccccc2c1)Cc1ccccc1 [ZM 39923 HCl] | −4.611
O=C([O-])[C@@]1(CCCCCCOc2ccc(Cl)cc2)CO1.[Na+] [(R)-(+)-Etomoxir sodium salt] | 3.941
C[C@H](NC(=O)CCc1nc2ccccc2c(=O)[nH]1)c1ccccc1 [ME0328] | 15.81
NC(=O)c1cccnc1 [Nicotinamide] | −2.471
CN1CCC(CNc2ccc3ncc(-c4cccc(OC(F)(F)F)c4)n3n2)CC1 [SGI-1776 free base] | −17.37
O=C(NCc1ccncc1)C12CC3CC(C1)CC(c1ccc(Cl)cc1)(C3)C2 [ABC294640] | 4.657
Oc1ccc(C=Cc2cc(O)cc(O)c2)cc1 [Resveratrol] | 0.9482
NC(=O)C1CCCc2c1[nH]c1ccc(Cl)cc21 (stereo not drawn) [EX 527 (SEN0014196)] | −0.5892
CCCCCCCCCCCCCC(=S)NCCCC[C@H](NC(=O)OCc1ccccc1)C(=O)Nc1ccccc1 [Thiomyristoyl] | −0.8381
O=C(O)CNC(=O)c1nc(Cl)c2ccccc2c1O [FG2216] | −1.816
CCS(=O)(=O)N1CCC([C@@H](C)n2c(C)c(C(=O)NCc3c(OC)cc(C)[nH]c3=O)c3ccccc32)CC1 [CPI-169] | 3.906
CN(C)Cc1ccc(-c2nc3cccc4c3n2CCNC4=O)cc1 [AG-14361] | 0.2059
Cc1cc(Nc2cc(N3CCN(C)CC3)nc(Sc3ccc(NC(=O)C4CC4)cc3)n2)[nH]n1 [VX-680 (MK-0457, Tozasertib), Tozasertib] | −20.25
Cc1nc(N)sc1-c1ccnc(Nc2ccc(N3CCOCC3)cc2)n1 [CYC116] | 8.383
COc1cc2c(NC3CCN(C(C)C)CC3)nc(C3CCCCC3)nc2cc1OCCCN1CCCC1 [UNC0638] | −12.13
Cn1cc(-c2ccc(S(=O)(=O)n3ccc(/C=C/C(=O)Nc4ccccc4N)c3)cc2)cn1 [4SC-202] | 15.57
CPI-455 | −8.682
O=c1ccc2ccccc2o1 [Coumarin] | 5.809
O=C1c2c(O)ccc(O)c2C(=O)c2c(NCCNCCO)ccc(NCCNCCO)c21 [Mitoxantrone HCl] | 11.28
COc1cc2nc(N3CCCC3)nc(NCCCCCN3CCCC3)c2cc1OC [UNC0379] | 21.92
C=C(C)[C@@H](CC=C(C)C)C[C@@]12C[C@@H](CC=C(C)C)C(C)(C)[C@@](CC=C(C)C)(C(=O)C(C(=O)c3ccc(O)c(O)c3)=C1O)C2=O [Garcinol] | 6.401

same assay, conditions: 10 uM, 48 hrs; average relative cell viability (vs 1% DMSO) of non-amplified cells (OVSAHO, CAOV3) minus that of MYC-HSF1 amplified cells (OVCAR8, OVCAR4); positive = greater response in amplified cells; 10 µM

Compound | Non Amp - AMP (POC) 10 uM [POC]
O=C(O)c1ccc(O)c2ncccc12 [IOX1] | 11.45
O=Nc1ccc(O)c2ncccc12 [NSC 3852] | 27.71
Fc1cc(-c2cccc3ncc(-c4cnn(C5CCNCC5)c4)nc23)cc(F)c1CN1CCOCC1 [NVP-BSK805 2HCl] | −12.67
O=C(O)C(Cc1c[nH]c2ccccc12)N1C(=O)c2ccccc2C1=O (stereo not drawn) [RG108] | 17.36
C[S+]([O-])CCCCN=C=S [L-Sulforaphane] | −5.74

same assay, conditions: 10 uM, 48 hrs; average relative cell viability (vs 1% DMSO) of non-amplified cells (OVSAHO, CAOV3) minus that of MYC-HSF1 amplified cells (OVCAR8, OVCAR4); positive = greater response in amplified cells; HCl, 10 µM

Compound | Non Amp - AMP (POC) 10 uM [POC]
Nc1ccn([C@@H]2O[C@H](CO)[C@@H](O)C2(F)F)c(=O)n1 [Gemcitabine HCl] | 8.319

same assay, conditions: 10 uM, 48 hrs; average relative cell viability (vs 1% DMSO) of non-amplified cells (OVSAHO, CAOV3) minus that of MYC-HSF1 amplified cells (OVCAR8, OVCAR4); positive = greater response in amplified cells; listed as IOX 1, 10 µM

Compound | Non Amp - AMP (POC) 10 uM [POC]
O=C(O)c1ccc(O)c2ncccc12 [IOX1] | 2.198

same assay, conditions: 10 uM, 48 hrs; average relative cell viability (vs 1% DMSO) of non-amplified cells (OVSAHO, CAOV3) minus that of MYC-HSF1 amplified cells (OVCAR8, OVCAR4); positive = greater response in amplified cells; listed as RG 108, 10 µM

Compound | Non Amp - AMP (POC) 10 uM [POC]
O=C(O)C(Cc1c[nH]c2ccccc12)N1C(=O)c2ccccc2C1=O (stereo not drawn) [RG108] | −2.615
